{
  "source": "paper PMC6882492",
  "about": "“Synthesis and biological evaluation of novel thienopyrimidine derivatives as diacylglycerol acyltransferase 1 (DGAT-1) inhibitors” (Journal of Enzyme Inhibition and Medicinal Chemistry, 2019)",
  "key": {"hDGAT1": {"target": "T1, hDGAT1 (Homo sapiens, UniProt O75907)", "T1 sequence (O75907 1-488)": "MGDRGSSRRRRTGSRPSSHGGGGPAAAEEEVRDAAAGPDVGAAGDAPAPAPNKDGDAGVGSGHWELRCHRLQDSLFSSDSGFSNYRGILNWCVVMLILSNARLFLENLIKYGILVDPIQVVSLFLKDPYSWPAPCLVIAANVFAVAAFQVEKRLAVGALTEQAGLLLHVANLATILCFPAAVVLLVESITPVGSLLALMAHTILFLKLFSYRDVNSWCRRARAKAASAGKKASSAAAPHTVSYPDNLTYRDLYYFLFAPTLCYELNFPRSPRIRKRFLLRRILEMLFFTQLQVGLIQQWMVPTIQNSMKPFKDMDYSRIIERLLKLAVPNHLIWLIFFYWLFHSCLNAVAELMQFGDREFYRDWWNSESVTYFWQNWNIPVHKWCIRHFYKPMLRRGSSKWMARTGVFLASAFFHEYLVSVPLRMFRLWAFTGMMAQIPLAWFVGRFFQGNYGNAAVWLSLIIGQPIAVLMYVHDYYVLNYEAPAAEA", "experiment": "Enzymatic assay hDGAT1", "type": "biochemical", "excerpt": "ACATs have sequence homology to DGAT-1 and play essential roles in cholesterol homeostasis. 17b was not explored in the enzymatic assays due to its poor pharmacokinetic profile."}, "CYP1A2": {"target": "T2, CYP1A2 (Homo sapiens, UniProt P05177)", "T2 sequence (P05177 1-516)": "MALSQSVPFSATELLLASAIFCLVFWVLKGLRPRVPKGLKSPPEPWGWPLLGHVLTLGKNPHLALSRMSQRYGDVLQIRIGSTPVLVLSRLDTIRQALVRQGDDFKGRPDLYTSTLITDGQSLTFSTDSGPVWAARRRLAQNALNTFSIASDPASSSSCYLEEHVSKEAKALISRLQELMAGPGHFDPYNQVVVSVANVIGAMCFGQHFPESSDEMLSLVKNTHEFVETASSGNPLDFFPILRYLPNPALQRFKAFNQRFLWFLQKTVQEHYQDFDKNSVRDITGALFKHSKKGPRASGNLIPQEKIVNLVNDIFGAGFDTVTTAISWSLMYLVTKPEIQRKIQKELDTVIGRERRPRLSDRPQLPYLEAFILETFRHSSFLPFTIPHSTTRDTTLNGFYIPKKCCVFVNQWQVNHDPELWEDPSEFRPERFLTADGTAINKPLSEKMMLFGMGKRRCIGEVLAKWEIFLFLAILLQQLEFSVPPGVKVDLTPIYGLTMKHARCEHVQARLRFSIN", "experiment": "CYP inhibition assay CYP1A2", "type": "in vitro ADME", "conditions": "fluorescence detection method; read-out: CYPs enzyme inhibition, IC50, CYP1A2"}},
  "note": "pIC50: −log10 of the molar value.",
  "data": [
    {"smiles": "O=C([O-])C[C@H]1CC[C@@H](c2csc3c(-c4ccc(NC(=O)Nc5cccc(Cl)c5)cc4)ncnc32)CC1.[Na+]", "note": "[Compound 17a, Sodium cis-2–(4–(4-(4-(3–(3-chlorophenyl)ureido)phenyl)thieno[3,2-d]pyrimidin-7-yl)cyclohexyl)acetate]", "values": [
      {"measurement": "pIC50", "setting": "hDGAT1", "value": 7.21},
      {"measurement": "pIC50", "setting": "CYP1A2", "value": 4.97}
    ]}
  ]
}
